Broadly, the IC50 is the point on the concentration scale where inhibition reaches its midpoint. Higher therefore signals a need for much substance. One may read the EC50 as the concentration needed to bring the measured effect to its halfway point. High values mean lower potency in that assay, low ones higher potency in that assay.

The text below walks through data of patent US20260327232A1, “Heteroaryl Compounds as Ligand Directed Degraders of IRAK4” (Celgene Corporation, priority 2023, published 2026).

Assay [1] deals with T1, IRAK4 (Homo sapiens, UniProt Q9NWZ3).
T1 sequence (Q9NWZ3 1-460): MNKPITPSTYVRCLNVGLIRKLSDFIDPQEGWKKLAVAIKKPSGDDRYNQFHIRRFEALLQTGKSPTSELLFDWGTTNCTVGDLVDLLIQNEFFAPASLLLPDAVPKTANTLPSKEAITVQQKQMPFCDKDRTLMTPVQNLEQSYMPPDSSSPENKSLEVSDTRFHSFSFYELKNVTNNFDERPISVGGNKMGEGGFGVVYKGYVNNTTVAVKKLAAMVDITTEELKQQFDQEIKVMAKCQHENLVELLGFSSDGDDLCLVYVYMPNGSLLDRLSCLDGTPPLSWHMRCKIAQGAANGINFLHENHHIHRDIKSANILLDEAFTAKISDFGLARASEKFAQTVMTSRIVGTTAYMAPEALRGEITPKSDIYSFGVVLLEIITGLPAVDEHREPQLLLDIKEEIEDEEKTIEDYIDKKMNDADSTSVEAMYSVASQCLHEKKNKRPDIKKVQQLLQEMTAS
The assay can be described thus: IRAK4 PhosphoSens Biochemical Assay (BIOCHEM). Conditions: 200 μM ATP, 10 μM peptide substrate AQT0326, 1 nM IRAK4, room temperature, 240 minutes.

For assay [2], the target named is T1, IRAK4. Nature of the assay: ALE THP1 HTRF (IRAK4 in THP1 cell lysates, Homogeneous Time Resolved Fluorescence). Further details: THP1 Homogeneous Time Resolved Fluorescence (ALE THP1 HTRF) Procedure; endogenous in cells; host or cells: THP1. Conditions: THP1 cells. It is filed as cell-based. The procedure:
Cell culture media was prepared in a tissue culture hood in a sterile environment by adding 10% FBS and 1% Penicillin Streptomycin to 500 mL no phenol red RPMI 1640 media. The media was filtered through a Nalgene Bottle Top Filter and stored at 4° C.
For Homogenous Time Resolved Fluorescence (HTRF) assays, a Cisbio HTRF kit was used, which included: Lysis Buffer #1 4×, Blocking Reagent #3 100×, 20× Antibody 1 (Anti-IRAK4 d2), 20× Antibody 2 (Anti-IRAK4 k), and Detection Buffer.
4× Lysis Buffer was stored at 4° C. For use as 1× Lysis buffer, the 4× solution was diluted with de-ionized water (distilled water, Gibco Cat. #15230279) and 100× Blocking Reagent in a 1:3:0.04 volume ratio.
20× Antibody Solution aliquots were stored in −80° C. and the Detection Buffer was stored in 4° C. For use as a 1× Antibody Solution, the 20× Antibody Solution aliquot was diluted with Detection Buffer in a 1:19 volume ratio.
Cells were lysed at room temperature for 45 min with shaking. A BCA protein assay was performed and normalization was conducted to the desired total protein concentration with 1× lysis buffer. Next, 1× Antibody Solutions were prepared by adding 380 μL Detection Buffer to 20 μL 20× Antibody Solution aliquots and mixing well. 1× Antibody Solutions were combined 1:1 and briefly vortexed. For control wells, 20 μL 1× anti IRAK4-k Antibody Solution was saved. The 384-well plate (ProxiPlate-384 Plus, Perkin Elmer Cat. #6008289) was loaded by adding 4 μL of the mixed Antibody Solution to empty wells using a single channel repeater. Using a multi-channel repeater, 16 μL lysate was added per well, and any bubbles that were formed were popped with 20 μL pipette tips and Kimwipe edges. In column 10, triplicates of each control was prepared. In wells A10, B10, and C10, buffer control was prepared by adding 16 μL Lysis Buffer and 4 μL Detection Buffer. In wells D10, E10, and F10, cryptate control was prepared by adding 16 μL Lysis Buffer, 2 μL Detection Buffer, and 2 μL 1× anti IRAK4-k Antibody Solution. In wells G10, H10, and 110, a negative control was prepared by adding 16 μL Lysis Buffer and 4 μL mixed Antibody Solution. The plate was sealed with a clear seal and covered with an aluminum lid. The plate was spun down at 800 g for 5 min and incubated in the dark at room temperature overnight. The next day, the plate was spun down at 800 g for 5 min. The samples were analyzed by a plate reader (Envision, PerkinElmer) using the Desnor 384 HTRF program.
In general terms: In TR-FRET formats the signal depends on donor and acceptor labels being close together.

Where a name gives a salt, the structure may show the parent alone. A value given as a limit tells only on which side of the number the result lay.

In the case of `Cn1nc(C2CCC(=O)NC2=O)c2ccc(NC3CCN(C(=O)[C@H]4CC[C@H](n5cc(NC(=O)c6cnn7ccc(N8C[C@H](N)C[C@@H](F)C8)nc67)c(C(F)F)n5)CC4)CC3)cc21` (some centres unmarked) [P-1], on IRAK4 [1], the midpoint of inhibition, the IC50, lay at 0.5 nM. In addition, the EC50 on IRAK4 [2] was more than 10000 nM. The molecule `Cn1nc(C2CCC(=O)NC2=O)c2ccc(N3CCC(NC(=O)[C@H]4CC[C@H](n5cc(NC(=O)c6cnn7ccc(N8C[C@H](N)C[C@@H](F)C8)nc67)c(C(F)F)n5)CC4)CC3)cc21` (stereo partly drawn) [P-4, 5-((3R,5R)-3-amino-5-fluoropiperidin-1-yl)-N-(3-(difluoromethyl)-1-((1r,4r)-4-((1-(3-(2,6-dioxopiperidin-3-yl)-1-methyl-1H-indazol-6-yl)piperidin-4-yl)carbamoyl)cyclohexyl)-1H-pyrazol-4-yl)pyrazolo[1,5-a]pyrimidine-3-carboxamide hydrochloride] registered a 50% inhibitory concentration (IC50) at IRAK4 [1] of less than 0.5 nM. The molecule further came in with an EC50 at IRAK4 [2] of 5.6 nM. Consider `Cn1nc(C2CCC(=O)NC2=O)c2ccc(N3CCC(NC[C@H]4CC[C@H](n5cc(NC(=O)c6cnn7ccc(N8C[C@H](N)C[C@@H](F)C8)nc67)c(C(F)F)n5)CC4)CC3)cc21` (stereo partly drawn) [P-5, 5-((3R,5R)-3-Amino-5-fluoropiperidin-1-yl)-N-(3-(difluoromethyl)-1-((1r,4r)-4-(((1-(3-(2,6-dioxopiperidin-3-yl)-1-methyl-1H-indazol-6-yl)piperidin-4-yl)amino)methyl)cyclohexyl)-1H-pyrazol-4-yl)pyrazolo[1,5-a]pyrimidine-3-carboxamide dihydrochloride], for which the IC50 on IRAK4 [1] is less than 0.5 nM. On IRAK4 [2], this molecule yielded an EC50 of 5 nM.

The molecule `Cn1nc(C2CCC(=O)NC2=O)c2cccc(N3CCC(NC(=O)[C@H]4CC[C@H](n5cc(NC(=O)c6cnn7ccc(N8C[C@H](N)C[C@@H](F)C8)nc67)c(C(F)F)n5)CC4)CC3)c21` (some centres unmarked) [P-6] showed an IC50 against IRAK4 [1] of less than 0.5 nM. Further, a half-maximal effect at IRAK4 [2] (EC50) was put at 5 nM.

`Cn1nc(C2CCC(=O)NC2=O)c2cccc(NC3CCN(CCC4CCC(n5cc(NC(=O)c6cnn7ccc(N8C[C@H](N)C[C@@H](F)C8)nc67)c(C(F)F)n5)CC4)CC3)c21` (stereo partly drawn) [P-7, N-[3-(difluoromethyl)-1-[4-[2-[4-[[3-(2,6-dioxo-3-piperidyl)-1-methyl-indazol-7-yl]amino]-1-piperidyl]ethyl]cyclohexyl]pyrazol-4-yl]-5-[(3R,5R)-3-amino-5-fluoro-1-piperidyl]pyrazolo[1,5-a]pyrimidine-3-carboxamide bis-HCl salt] yielded an IC50 against IRAK4 [1] of less than 0.5 nM. The molecule also gave an EC50 on IRAK4 [2] of 12 nM.

Molecule `Cn1nc(C2CCC(=O)NC2=O)c2cccc(N3CCN(C[C@H]4CC[C@H](n5cc(NC(=O)c6cnn7ccc(N8C[C@H](N)C[C@@H](F)C8)nc67)c(C(F)F)n5)CC4)CC3)c21` (some centres unmarked) [P-8] gave an IC50 at IRAK4 [1] of less than 0.5 nM. The molecule further gave an EC50 at IRAK4 [2] of 7 nM.

The molecule `Cn1nc(C2CCC(=O)NC2=O)c2cccc(NC3CCN(C(=O)[C@H]4CC[C@H](n5cc(NC(=O)c6cnn7ccc(N8C[C@H](N)C[C@@H](F)C8)nc67)c(C(F)F)n5)CC4)CC3)c21` (stereo partly drawn) [P-9, 5-((3R,5R)-3-amino-5-fluoropiperidin-1-yl)-N-(3-(difluoromethyl)-1-((1r,4r)-4-(4-((3-(2,6-dioxopiperidin-3-yl)-1-methyl-1H-indazol-7-yl)amino)piperidine-1-carbonyl)cyclohexyl)-1H-pyrazol-4-yl)pyrazolo[1,5-a]pyrimidine-3-carboxamide hydrochloride] gave an IC50 on IRAK4 [1] of less than 0.5 nM. The EC50 on IRAK4 [2] stood at 4 nM. In turn, `Cn1nc(C2CCC(=O)NC2=O)c2ccc(N3CCN(CC[C@H]4CC[C@H](n5cc(NC(=O)c6cnn7ccc(N8C[C@H](N)C[C@@H](F)C8)nc67)c(C(F)F)n5)CC4)CC3)cc21` (some centres unmarked) [P-10] returned an IC50 at IRAK4 [1] of less than 0.5 nM. Also, on IRAK4 [2], the midpoint of the response, the EC50, lay at 14 nM. The corresponding values for `Cn1nc(C2CCC(=O)NC2=O)c2cccc(N3CCN(CCC4CCC(n5cc(NC(=O)c6cnn7ccc(N8C[C@H](N)C[C@@H](F)C8)nc67)c(C(F)F)n5)CC4)CC3)c21` (some centres unmarked) [P-11] are less than 0.5 nM and 17 nM. On to `Cn1nc(C2CCC(=O)NC2=O)c2ccc(NC3CC4(C3)CN(CC3CCC(n5cc(NC(=O)c6cnn7ccc(N8C[C@H](N)C[C@@H](F)C8)nc67)c(C(F)F)n5)CC3)C4)cc21` (some centres unmarked) [P-12], for which the 50% inhibitory concentration (IC50) against IRAK4 [1] is less than 0.5 nM. Moreover, at IRAK4 [2], the midpoint of the response, the EC50, lay at 6 nM.

With `Cn1nc(C2CCC(=O)NC2=O)c2ccc(NC3CN(C[C@H]4CC[C@H](n5cc(NC(=O)c6cnn7ccc(N8C[C@H](N)C[C@@H](F)C8)nc67)c(C(F)F)n5)CC4)C3)cc21` (some centres unmarked) [P-13], the IC50 against IRAK4 [1] is less than 0.5 nM. On IRAK4 [2], this molecule showed an EC50 of 1 nM. For `Cn1nc(C2CCC(=O)NC2=O)c2ccc(N3CCN(C[C@H]4CC[C@H](n5cc(NC(=O)c6cnn7ccc(N8C[C@H](N)C[C@@H](F)C8)nc67)c(C(F)F)n5)CC4)CC3)cc21` (some centres unmarked) [P-14] the same measures were less than 0.5 nM and more than 10000 nM. Molecule `Cn1nc(C2CCC(=O)NC2=O)c2cccc(N3CCC(NC[C@H]4CC[C@H](n5cc(NC(=O)c6cnn7ccc(N8C[C@H](N)C[C@@H](F)C8)nc67)c(C(F)F)n5)CC4)CC3)c21` (some centres unmarked) [P-15] displayed an IC50 against IRAK4 [1] of less than 0.5 nM. At IRAK4 [2], the midpoint of the response, the EC50, lay at 10 nM. Turning to `Cn1nc(C2CCC(=O)NC2=O)c2ccc(NC3CCN(CC[C@H]4CC[C@H](n5cc(NC(=O)c6cnn7ccc(N8C[C@H](N)C[C@@H](F)C8)nc67)c(C(F)F)n5)CC4)CC3)cc21` (some centres unmarked) [P-16], the half-maximal inhibitory concentration (IC50) at IRAK4 [1] is less than 0.5 nM. At IRAK4 [2], the EC50 amounted to 5 nM.

In turn, `Cn1nc(C2CCC(=O)NC2=O)c2ccc(C(=O)N3CCN(C[C@H]4CC[C@H](n5cc(NC(=O)c6cnn7ccc(N8C[C@H](N)C[C@@H](F)C8)nc67)c(C(F)F)n5)CC4)CC3)cc21` (some centres unmarked) [P-17] showed a concentration for half-maximal inhibition (IC50) against IRAK4 [1] of less than 0.5 nM. Besides, the response at IRAK4 [2] was half-maximal at 1 nM (EC50).

`Cn1nc(C2CCC(=O)NC2=O)c2ccc(NC3CCN(CC4CCC(n5cc(NC(=O)c6cnn7ccc(N8C[C@H](N)C[C@H](F)C8)nc67)c(C(F)F)n5)CC4)CC3)cc21` (some centres unmarked) [P-19] yielded an IC50 on IRAK4 [1] of less than 0.5 nM. On IRAK4 [2], this molecule returned an EC50 of 5 nM. The molecule `Cn1nc(C2CCC(=O)NC2=O)c2ccc(NC3CCN(C[C@H]4CC[C@H](n5cc(NC(=O)c6cnn7ccc(N8C[C@H](N)CC(F)(F)C8)nc67)c(C(F)F)n5)CC4)CC3)cc21` (some centres unmarked) [P-20] returned an IC50 on IRAK4 [1] of less than 0.5 nM. The molecule further came in with an EC50 at IRAK4 [2] of 5 nM. The corresponding values for `Cn1nc(C2CCC(=O)NC2=O)c2ccc(N[C@@H]3CCN(CC4CCC(n5cc(NC(=O)c6cnn7ccc(N8C[C@H](N)C[C@@H](F)C8)nc67)c(C(F)F)n5)CC4)C[C@H]3F)cc21` (some centres unmarked) [P-22] are less than 0.5 nM and 5 nM.

Molecule `Cn1nc(C2CCC(=O)NC2=O)c2ccc(N[C@H]3CCN(C[C@H]4CC[C@H](n5cc(NC(=O)c6cnn7ccc(N8C[C@H](N)C[C@@H](F)C8)nc67)c(C(F)F)n5)CC4)C[C@H]3F)cc21` (some centres unmarked) [P-23] came in with an IC50 on IRAK4 [1] of less than 0.5 nM. This molecule also registered an EC50 on IRAK4 [2] of 4 nM. Molecule `Cn1nc(C2CCC(=O)NC2=O)c2ccc(OC3CCN(C[C@H]4CC[C@H](n5cc(NC(=O)c6cnn7ccc(N8C[C@H](N)C[C@@H](F)C8)nc67)c(C(F)F)n5)CC4)CC3)cc21` (some centres unmarked) [P-26] had an IC50 against IRAK4 [1] of less than 0.5 nM. This molecule also gave a concentration for a half-maximal effect (EC50) on IRAK4 [2] of 11 nM. Consider `Cc1ccc(Nc2ccn3ncc(C(=O)Nc4cn([C@H]5CC[C@H](CN(C)C6CCN(c7ccc8c(C9CCC(=O)NC9=O)nn(C)c8c7)CC6)CC5)nc4C(F)F)c3n2)cn1` (some centres unmarked) [P-48], for which, on IRAK4 [2], the response was half-maximal at 3510 nM (EC50).
